The values that follow are results of earlier work, collected in patent EP0315648B1 (THE UPJOHN COMPANY, priority 1986, dated 1988).

The conditions of the data set: Hildebrand solubility coefficient of the solvent (scale of Vaughn).

Regarding `CCCCCCCC/C=C\CCCCCCCCO` [oleyl alcohol], the HSC is 9.8.
In the case of `CC(O)CO` (centres unmarked) [propylene glycol], the HSC is 14.
